# Target: Eukaryotic translation initiation factor 4H (Homo sapiens, UniProt Q15056)
# Test: eIF4H binding inhibition – biochemical, uHTS, fluorescence polarization, translation initiation inhibitor project, primary screen (AID 2012)
row,SMILES,IC50 [µM]
1,CC1=NC(=O)NC(c2ccco2)C1C(=O)OC(C)C (centres undefined) [SMR000120838],34.7
2,O=C(O)c1ccc(N=NCc2cc3c(cc2[N+](=O)[O-])OCO3)cc1,21.8
3,COc1ccc2c(c1)=C(NNC(=O)Cc1cccs1)C(=O)N=2,11
4,COc1cc(C)cc(C(=O)O)c1C1C(=O)C(=O)c2c(O)cccc2C1=O (centres undefined) [MLS000877007],5.43
5,O=C1N=c2ccccc2=C1NNC(=O)c1cc(-c2cccs2)n[nH]1 [N'-(2-oxoindol-3-yl)-5-thiophen-2-yl-1H-pyrazole-3-carbohydrazide],11.5
6,"CC[N+](C)(CC)CCCC(N=O)C(O)(c1ccccc1)c1ccccc1 (centres undefined) [diethyl-(5-hydroxy-4-hydroxyimino-5,5-diphenylpentyl)-methylammonium;iodide]",100
7,"CCn1c(=NC(=O)c2ccc(-n3c(O)ccc3O)cc2)sc2c(OC)ccc(OC)c21 [4-[2,5-bis(oxidanylidene)pyrrolidin-1-yl]-N-(3-ethyl-4,7-dimethoxy-1,3-benzothiazol-2-ylidene)benzamide]",14.7
8,"COc1ccc(CN=Nc2nc(O)c(CC(=O)O)s2)cc1OCc1ccc(Cl)cc1Cl [[2-({3-[(2,4-dichlorobenzyl)oxy]-4-methoxybenzylidene}hydrazono)-4-oxo-1,3-thiazolidin-5-yl]acetic acid]",14.7
9,"CC1(C)Oc2ccc3ccc(=O)oc3c2C(CN=O)=C1Cl [9-chloro-2-keto-8,8-dimethyl-pyrano[2,3-f]chromene-10-carbaldehyde oxime]",100

# — BindingDB's records for doi:10.7270/Q26W98HW (Burnham Center For Chemical Genomics, 2009)
